# Laboratory results: US10235756B2, “Vascular analysis methods and apparatus” (Bio-Tree Systems, Inc., priority 2009, dated 2019)
# Legend:
# [1] = test system: vasculature; assay: Morphological features as a function of vessel diameter, control vs treated vasculature; type: in vivo; conditions: control vasculature vs vasculature treated with Avastin, FIGS. 30-32
# Source text: As discussed above, computed morphological features may be used to compare the same features obtained from healthy tissue, or to compare the same features extracted from a bounded vasculature at different points in time to, for example, assess the effectiveness of treatment. FIGS. 30-33 illustrate examples of using various morphological properties described herein to, for example, quantify diseased vasculature and/or assess the effectiveness of a particular treatment. FIGS. 30-32 illustrate plots of a respective morphological feature as a function of vessel diameter for a control vasculature and for a vasculature treated with Avastin. […] Moreover, the impact may differ depending on the vessel size. That is, differences between the control and treated plots may be larger or smaller depending on the diameter of the vessel. Applicant has appreciated that the differences may be quantified to define a range wherein differences are different enough to help determine which vessel diameters are being targeted and impacted by the treatment.
# [2] = test system: glioblastoma; assay: Vascular biomarker analysis of control and Avastin-treated glioblastoma (3D tumor vasculature, tumor wrap); type: in vivo
# Source text: X-ray images of a control tumor and an Avastin-treated tumor are shown side by side in FIG. 43. […] FIGS. 46 and 47 show exemplary tumor wraps of the same control and Avastin-treated tumors. FIGS. 48-52 exemplify visualization of the distribution of microvascular density within two exemplary tumors.
# In some embodiments, the assessment of vascular hot spots and/or necrotic regions within a diseased tissue, for example a malignant tumor, may be used in the evaluation of a treatment targeting said diseased tissue, for example the administration of a chemotherapeutic agent. FIG. 54 exemplify a comparison of vascular hot spots and necrotic regions in glioblastoma treated with Avastin to vascular hot spots and necrotic regions in non-treated control glioblastoma. […] Assessment of an exemplary vascular density related biomarker, total vessel density (number of vessels per given volume), in Avastin-treated glioblastoma and untreated controls is depicted in FIG. 56. Assessment of another exemplary vascular density related biomarker, mean vessel density (average number of vessels over a number of volume units, for example defined by the boundary of a tumor), in Avastin-treated glioblastoma and untreated controls as depicted in FIG. 57. Assessment of an exemplary vascular density related biomarker, total vessel volume density (number of voxels belonging to a vessel within a given volume), in Avastin-treated glioblastoma and untreated controls is depicted in FIG. 58. Assessment of another exemplary vascular density related biomarker, mean vessel volume density (average number of voxels belonging to a vessel within a number of volume units, for example defined by the boundary of a tumor), in Avastin-treated glioblastoma and untreated controls as depicted in FIG. 59. In some embodiments, a boundary of a tissue, for example a tumor, are determined based on vascular imaging and modeling data, and a subsequent assessment qualifying a voxel within those boundaries is carried out. In some embodiments, a biomarker is […] in a plurality of such qualified voxels. For example, the boundary of a solid tumor may be determined based on the abnormal vasculature associated with malignant tissue, for example by “tumor-wrap”, and vascular density related biomarkers may be assessed for tissue within that boundary.
# It should be appreciated, that the biomarkers related to by some aspects of this invention may be useful in a wide variety of diagnostic and therapeutic modalities and applications, some non-limiting examples of which are described herein.
# [3] = test system: human non-small cell lung tumor cell line (A549) subcutaneous tumors; assay: Xenotopic tumor model, response to antiangiogenic therapy (vascular casts, micro CT); type: in vivo, mouse
# Description: A tumor model can be generated by inoculating human non-small cell lung tumor cell line (A549 from ATCC, Inc.) subcutaneously in immunodeficient mice (SCID). SCID male mice (6-8 weeks old from Charles River Inc.) are inoculated subcutaneously in the lower back with a suspension of 1×10^6 human lung tumor cells (A549) in 0.2 ml of PBS. All mice are fed normal chow diet throughout the duration of the experiment. All mice weights are measured throughout the experiment. Tumor size is measured with calipers twice-a-week and tumor volume is calculated using the formula Length^2×Width×0.52. All mice are randomized into two treatment groups (approximately 10 mice per group) when the median tumor volume reaches approximately 500 mm^3. The treatment groups can be treated according to the following schedule using intraperitoneal (i.p.) administration of either a control composition or an anti-angiogenic compound. For example, different levels of an anti-angiogenic compound can be used and the results compared to a control group that is not treated with an anti-angiogenic compound (e.g., Avastin® available from Genentech, South San Francisco, Calif.). For example:
# Group 1: Control group—treated with saline/PBS twice a week.
# Group 2: High Avastin®—treated with Avastin® at 5 mg/kg/i.p. twice a week.
# Group 3: Low Avastin®—treated with Avastin® at 0.5 mg/kg/i.p. twice a week.
# Experiments are terminated 1.5 weeks after initial treatment.
# At the end-point, all mice are anesthetized and systemically perfused with a casting agent.
# In some embodiments, a tissue, for example, a tumor tissue, is perfused with a contrast and/or a casting agent prior to image acquisition. Methods of tissue perfusion are well known to those of skill in the art. In some embodiments, a tissue is perfused with Mercox, a casting agent available, for example, from Ladd Research, Williston, Vt. Mercox perfusion can be performed, as follows. An initial anticoagulation step for each animal is performed using an i.v. injection of heparin (10,000 U/ml, 0.3 cc/mouse). After 30 minutes, the animals are anesthetized. Each animal's heart is cannulated and the animal perfused with warm physiological saline at physiological pressure (with an open vein draining the organ or with an open vena cava). Perfusion is continued until the organ or animal is clear of blood. Mercox monomer is filtered through a 0.5 μm filter and a casting resin is prepared by mixing 8 ml Mercox, 2 ml methylmethacrylate, and 0.3 ml catalyst. The resin is infused through the same cannula until the onset of polymerization (the resin changes color to brown and emits heat, ˜10 min). The organ or animal is carefully immersed in a 60° C. water bath for 2 hours (or overnight in a sealed container). The tissue is removed by incubating in alternating rinses of 5% KOH and distilled water (for example in a 60° C. water bath sealed) followed by thorough rinsing in distilled water. The cast is cleaned in 5% formic acid for 15 minutes and rinsed thoroughly in distilled water and frozen in distilled water. The resulting block of ice is lyophilized (care should be taken not to melt the ice, the ice should […] as it lyophilizes). The resulting cast can be analyzed to identify one or more structural characteristics of interest.
# Xenotopic mouse models obtained as described in Example 7 can be treated with either a control solution of saline/PBS or an anti-angiogenic preparation of Avastin® at 0.5 mg/kg/i.p. as described above. At the end-point, vascular casts can be prepared as described in Example 8 above and may be analyzed for two treated mice (both treated with Avastin® at 0.5 mg/kg/i.p.) and one control mouse. However, other experimental configurations may be used. The resulting vascular casts can be scanned using a micro CT-scanner and exemplary results of the structural analysis are shown in FIGS. 44-47. […] The blood vessel population distributions were consistent for both treated animals. […]
# [4] = test system: mouse tumor model generated using H1975 cells; assay: Hot spot analysis in mouse tumor model; type: in vivo
# Source text: Applicant has appreciated that vascular information (e.g., based on vascular geometry) within a region (e.g., a wrapped 3D region) may be analyzed to identify one or more hot spots. For example, a threshold number of poker chips may be identified as a threshold for a hot spot within a unit volume of a tumor. The relative amount (e.g., percentage) of tumor vasculature that is represented by a hot spot then may be determined. This value may be used to evaluate the tumor (e.g., for diagnostic or prognostic purposes) or to evaluate a tumor response to therapy. In a non-limiting example, a hot spot may be defined as a cubic millimeter that contains more than 10,000 poker chips. FIGS. 73 and 74 illustrate experiments where the percentage represented by the hot spot regions (e.g., as a percentage of unit volumes within a tumor volume that are above the threshold for defining a hotspot) are evaluated in a mouse tumor model in response to Avastin treatment. The mouse tumor model was generated using H1975 cells. Mice were compared with and without Avastin treatment (Avastin provided for 10 days as described herein). The tumors analyzed were approximately 100 cubic mm in size. […]
# [5] = Avastin-treated vs non-treated control glioblastoma, FIG. 55
# [6] = 0.5 mg/kg/i.p., treated vs untreated tumors
substance,measurement,setting,value
bevacizumab [Avastin],morphological features as a function of vessel diameter,[1],there are differences
same,hot spot density,[2]; [5],significant decrease
same,necrotic region volume,[2]; [5],significant increase
same,vessel volume density,[2]; [5],significant decrease
same,frequency of microvascular density bins,"[2]; control vs treated tumor, FIG. 53",different microvascular density bin distribution
same,mean tumor volumes,"[3]; 0.5 mg/kg/i.p., treated vs control group at the end of the experiment",did not differ significantly
same,blood vessel density,"[3]; 0.5 mg/kg/i.p., treated vs control, FIGS. 54-67",differences in blood vessel density were detected
same,percentage of middle diameter sized vessels,[3]; [6],higher percentage
same,"small diameter sized vessels, less than untreated tumors",[3]; [6],20%
same,vessel population ratio between large and middle size vessels,"[3]; large approximately 147-161 μm, middle approximately 33-77 μm, after treatment",decreased
same,vessel population ratio between small and middle size vessels,"[3]; small approximately 21-35 μm, middle approximately 35-49 μm, after inhibitor treatment",decreased
same,mean percentage of hot spot regions,"[4]; Avastin provided for 10 days, over the time of the experiment, FIG. 73",decrease
same,percentage of hot spot regions after treatment,"[4]; change of about 40% to about 10%, Avastin for 10 days, hot spot = cubic millimeter with more than 10,000 poker chips",about 10%
